This is an account of results in patent US20230118435A1, “COMPOSITION COMPRISING AN AVENANTHRAMIDE WITH IMPROVED SKIN PENETRATION” (priority 2020, published 2023).

The series can be described thus: Skin PAMPA (Parallel Artificial Membrane Permeability Assay) permeation from a cosmetic formulation. As to conditions: for Mean amount per ml acceptor liquid: 0.05% in formulation, no penetration enhancer; for Modulation (%) of penetration / increase of permeation / Modulation (%) of penetration: 3% 1,2-pentanediol (Hydrolite-5); for Penetration behaviour compared with DhAvn D: absence of a penetration enhancer, FIG. 1. The class given is in vitro ADME. The protocol: The permeation of Avn A from a cosmetic formulation across a stratum corneum-mimicking artificial membrane was evaluated using the Skin PAMPA™ (Parallel Artificial Membrane Permeability Assay) model.
The primary penetration barrier of the skin, the stratum corneum (SC), consists of corneocytes embedded in extracellular lipids. The lipid mixture of the Skin PAMPA™ membrane consists of similar quantities of certramides (synthetic ceramide analogues), stearic acid and cholesterol as the SC. The Skin PAMPA™ sandwich consists of two 96-well plates, wherein one plate is formed so as to sit precisely under the plate that contains a porous lipid-impregnated filter. The wells of the bottom plate were filled with formulation, and the wells of the top plate were filled with acceptor solution. The plates were then stacked and incubated. The Skin PAMPA™ model has been used to evaluate semi-solid formulations and found to correlate well with ex vivo permeation studies.
Heat Phase A and B separately to 70° C.; disperse Phase C in B; add Phase BC to Phase A and emulsify using an ULTRA TURRAX® stirrer (2 minutes); allow to cool by using a vane stirrer; add Phase D for neutralising. The formulation was prepared in bulk. The active substances were pre-dissolved in the corresponding additives and were added to the formulation (15 minutes stirring with a vane stirrer).
180 ml of buffer was mixed with 20 ml ethanol (buffer: 20 mmol/l citric acid, pH 5.5); 0.84 g of anhydrous citric acid was dissolved in approximately 180 g of water; the pH was adjusted to 5.5 using a 30% sodium hydroxide solution; following pH adjustment, the solution was filled up with water to 200 g.
After 240 minutes, approximately 180 μl of each Skin PAMPA™ sample was transferred into an HPLC micro-vial.
Equipment: an Agilent HP 1100 connected to a Waters Empower 3 SR3
Column: a Waters XBridge® C18, 3.5 μm, 3.0×50 mm
Column temperature: 30° C. Mobile phase A: water+0.1% formic acid Mobile phase B: methanol Flow: 1.02 ml/min Injection volume: 25 μl
The permeation of Avn L from a cosmetic formulation across a stratum corneum-mimicking artificial membrane was evaluated as described above using the Skin PAMPA™ (Parallel Artificial Membrane Permeability Assay) model.
The permeation of Avn B from a cosmetic formulation across a stratum corneum-mimicking artificial membrane was evaluated as described above using the Skin PAMPA™ (Parallel Artificial Membrane Permeability Assay) model.
Unlike Examples 1 and 2, acceptor solution samples for HPLC analysis of each Skin PAMPA™ sample were this time taken after just 120 minutes.
The skin permeation of Avn A, Avn B, Avn C and Avn L in comparison to dihydroavenanthramide D (DhAvn D) from a cosmetic formulation across a stratum corneum-mimicking artificial membrane was evaluated as described above using the Skin PAMPA™ (Parallel Artificial Membrane Permeability Assay) model.
Heat Phase A and B separately to 70° C.; disperse Phase C in B; add Phase BC to Phase A and emulsify using an ULTRA TURRAX® stirrer (2 minutes); allow to cool by using a vane stirrer; add Phase D for neutralising. The formulation was prepared in bulk. The active substances were pre-dissolved in glycerine or water or mixtures thereof and were added to the formulation (15 minutes stirring with a vane stirrer).
After 60, 120 and 240 minutes, approximately 180 μl of each Skin PAMPA™ sample was transferred into an HPLC micro-vial and analysed by HPLC.
The permeation of Avn L in comparison to dihydroavenanthramide D (DhAvn D) from a cosmetic formulation in the presence of 3% 1,2-pentanediol across a stratum corneum-mimicking artificial membrane was evaluated as described above using the Skin PAMPA™ (Parallel Artificial Membrane Permeability Assay) model.
In general terms: In PAMPA a lipid-coated filter parts donor from acceptor wells.

Take `O=C(C=Cc1ccc(O)cc1)Nc1ccc(O)cc1C(=O)O` [Avn A, N-(4′-hydroxycinnamoyl)-5-hydroxyanthranilic acid]: the “Penetration behaviour compared with DhAvn D” value is listed as “weaker penetration behaviour than dehydroavenanthramide D (DhAvn D)”. Further, the “Mean amount per ml acceptor liquid” value (0 min) came out at 0 μg per ml. The “Mean amount per ml acceptor liquid” value (60 min) amounted to 0.069 μg per ml. Moreover, the “Mean amount per ml acceptor liquid” value (120 min) worked out at 0.188 μg per ml. Under “240 min”, the “Mean amount per ml acceptor liquid” value was determined as 0.319 μg per ml and the “Modulation (%) of penetration / increase of permeation” value is given as 19%. The compound also gave an Increase of permeation (2% Hydrolite-6 (1,2-hexanediol), 240 min) of 46%. The Increase of permeation (5% Hydrolite-5 (1,2-pentanediol), 240 min) was 59%.

For `O=C(CCc1ccc(O)cc1)Nc1ccccc1C(=O)O` [Dihydroavenanthramide D, 2-(3-(4-hydroxyphenyl-)propanoyl-)amidobenzoic acid, reference compound], the “Mean amount per ml acceptor liquid” value came out at 0.000 μg per ml (0 min), 0.225 μg per ml (60 min), 0.288 μg per ml (120 min) and 0.750 μg per ml (240 min). Moreover, the “Modulation (%) of penetration” value reads like this: (60 min) −2%; (120 min) 58%. Moreover, the “Modulation (%) of penetration / increase of permeation” value (240 min) is 57%.

As for `COc1cc(C=CC(=O)Nc2ccc(O)cc2C(=O)O)ccc1O` [Avn B, N-(4′-hydroxy-3′-methoxycinnamoyl)-5-hydroxyanthranilic acid], the “Penetration behaviour compared with DhAvn D” value is “weaker penetration behaviour than dehydroavenanthramide D (DhAvn D)”. Further, for the setting “0 min”, the “Mean amount per ml acceptor liquid” value is 0 μg per ml. Besides, the “Mean amount per ml acceptor liquid” value (60 min) came to 0.038 μg per ml. Moreover, the “Mean amount per ml acceptor liquid” value (120 min) is listed as 0.063 μg per ml. Further, under “240 min”, the “Mean amount per ml acceptor liquid” value stood at 0.154 μg per ml. This compound also yielded an Increase of permeation (1% Hydrolite-6 (1,2-hexanediol), Example 3, samples taken after 120 minutes) of 62%. The Increase of permeation (1% SymDiol 68 (1:1 1,2-hexanediol and 1,2-octanediol), Example 3, samples taken after 120 minutes) is 87%. The compound also returned an Increase of permeation (2% Hydrolite-6 (1,2-hexanediol), Example 3, samples taken after 120 minutes) of 76%.

Consider `O=C(C=Cc1ccc(O)c(O)c1)Nc1ccc(O)cc1C(=O)O` [Avn C, N-(3′-4′-dihydroxycinnamoyl)-5-hydroxyanthranilic acid], for which the “Penetration behaviour compared with DhAvn D” value is “penetrates better than dehydroavenanthramide D (DhAvn D)”. Where the note is “0 min”, the “Mean amount per ml acceptor liquid” value came to 0 μg per ml. Moreover, the “Mean amount per ml acceptor liquid” value (60 min) is 0.321 μg per ml. Moreover, the “Mean amount per ml acceptor liquid” value (120 min) was found to be 0.532 μg per ml. Where the note is “240 min”, the “Mean amount per ml acceptor liquid” value was 1.098 μg per ml.

For the compound `O=C(/C=C/C=C/c1ccc(O)cc1)Nc1ccc(O)cc1C(=O)O` [Avn L], the “Penetration behaviour compared with DhAvn D” value was “weaker penetration behaviour than dehydroavenanthramide D (DhAvn D)”. Besides, under “0 min”, the “Mean amount per ml acceptor liquid” value was found to be 0 μg per ml. Moreover, under “60 min”, the “Mean amount per ml acceptor liquid” value is 0 μg per ml. Further, the “Mean amount per ml acceptor liquid” value (120 min) is on record as 0.000 μg per ml. Where the note is “240 min”, the “Mean amount per ml acceptor liquid” value was 0.030 μg per ml and the “Modulation (%) of penetration / increase of permeation” value is listed as 125%. Further, the Increase of permeation (1% Hydrolite-6 (1,2-hexanediol), 240 min) worked out at 160%.
